Laboratory results published in patent US20240050466A1, “CELLULAR HEALTH NUTRITIONAL PRODUCT” (GLAXOSMITHKLINE CONSUMER HEALTHCARE HOLDINGS (US) LLC, priority 2020, published 2024).

Experiments:
[1] = Summary of bioefficacy, plausibility and criticality of micronutrients in F2; conditions: grade Low/medium/High, key not given
Excerpt: Summary Table of Bioefficacy, Plausibility and Criticality of Micronutrients in F2

gene expression = conditions: hesperidin intake in humans; cited from earlier work
[2] = cited from earlier work
[3] = in vivo, cited from earlier work

Compound	Bioefficacy [1]	further results
NCCC(=O)N[C@@H](Cc1cnc[nH]1)C(=O)O [Carnosine, L-Carnosine]	Low	
COc1ccc([C@@H]2CC(=O)c3c(O)cc(O[C@@H]4O[C@H](CO[C@@H]5O[C@@H](C)[C@H](O)[C@@H](O)[C@H]5O)[C@@H](O)[C@H](O)[C@H]4O)cc3O2)cc1O [Hesperidin, hesperidin]	medium	number of genes whose expression is modulated (gene expression): about 1,819 genes
CC1=C[C@H](O)CC(C)(C)[C@H]1/C=C/C(C)=C/C=C/C(C)=C/C=C/C=C(C)/C=C/C=C(C)/C=C/C1=C(C)C[C@@H](O)CC1(C)C [Lutein, trans-lutein]	medium	
CC(C)=CCC/C(C)=C/C=C/C(C)=C/C=C/C(C)=C/C=C/C=C(C)/C=C/C=C(C)/C=C/C=C(\C)CCC=C(C)C [Lycopene, lycopene]	High	
CC(=O)Oc1c(C)c(C)c2c(c1C)CCC(C)(CCC[C@H](C)CCC[C@H](C)CCCC(C)C)O2 (stereo partly drawn) [RRRDL-alpha-Tocopherol Acetate]		safe upper limit for adults [2]: 273 mg/day
C[Se]CC[C@H](N)C(=O)O [Selenium, selenomethionine]	medium	reference dose (RfD) or NOAEL for Se ([3]; human): 350 µg/day; reference dose (RfD) or NOAEL for Se per body weight [3]: 5 ug Se/(kg body per day)
O=C1O[C@H]([C@@H](O)CO)C(O)=C1O [Vitamin C, ascorbic acid]	medium	
Vitamin E	Low	
